These results are taken from US20050019746A1, “Apoptosis-related kinase/GPCRs” (EiRx Therapeutics Limited, priority 2003, published 2005).

Common to all, as to type: cell-based, human
One data set has as its system SKOV3 cells. Nature of the data set: 10-14 day Clonagenicity Assay (MTT), SKOV3. The settings on record: for percentage survival relative to the missense, n = 1: independent experiment n = 1, dilution point of maximum toxicity; for percentage survival relative to the missense, n = 2: independent experiment n = 2, dilution point of maximum toxicity; for percentage survival relative to the missense, n = 3: independent experiment n = 3, dilution point of maximum toxicity. The source says: (§1) The Clonagenicity Assay represents a Cell Viability Screen that allows assessment of a cytotoxic insult at a variety of seed densities of cancer cell lines over an extended period of logarithmic growth, such that the definitive effect of the test substance can be accurately quantified. In this instance, the ‘cytotoxic insult’ to be tested involves the transfection of siRNA Oligomers to knockdown the expression of novel target Kinases and GPCRs as outlined previously. Cell number is quantified 10-14 days post siRNA transfection by MTT conversion as described in detail in Example 6.
(§2) The Clonagenicity Assay is optimised for each cell line examined with respect to seed number. The seed number varies for each cell line and accounts for the differences in cell size, growth rate and sensitivity to transfection-induced toxicity for each cell line pursued. Cells lines given as models for this example include HCT15, MCF7, A549, SKOV3, DU145, U251, PC3, A498 and HeLa. The siRNA oligo to Survivin serves as a positive control for toxicity in this assay and the missense control oligomer acts as a negative control as described in detail in Examples 5 and 6. The c-Raf, BCL2 and PI3K siRNA oligomers serve as additional controls as previously mentioned. The Clonagenicity assay is performed as outlined below.
(§3) Cells are seeded into a 96-well plate as described below and allowed to adhere overnight at 37° C. in a humidified atmosphere containing 5% CO2 in air. Wells are seeded with an appropriate cell number (cell line dependent) in Column 1 of the 96 well plates and this cell suspension is diluted 1 in 2 across the 96 well plates from Column 1 through to 6 (represented on the x-axis in results). Cells are next transfected with siRNA Oligomers, at a concentration of 2 μg/ml, against the genes of interest. Transfections continue for 4 hrs after which the transfection solution is removed and cells are refed with fresh medium and allow to incubate overnight. An additional media change@24 hrs post transfection is made to minimise toxicity of the transfection reagent. Cells are subsequently incubated for a 10-14 Day period post transfection at a 37° C. incubation as described above. Medium is renewed weekly following which MTT quantification is performed as described in Example 5.
(§4) To be considered cytotoxic, the siRNA Oligo against the gene target must induce a decreased viability in a cell line across at least 2 seed densities in the clonagenicity assay, such that a significant difference between the target gene and MS is observed i.e. no crossing of the Standard Error bars is detected. The average percentage viability, relative to missense, is recorded for the dilution point at which Maximum Toxicity is induced is recorded in Table 13.
(§5) Table 13 Clonagenicity Assay—This table gives the average percentage survival of the indicated cell lines relative to the missense in a clonagenicity assay, over 3 independent experiments. As an internal reference, the known survival gene ‘Survivin’, BCL2, c-Raf and PI3KR1 was also targeted by siRNA. When no Cytotoxic response is detected ‘-’ is recorded.

The subject of a further data set is DU145 cells. Kind of data set: 10-14 day Clonagenicity Assay (MTT), DU145. The conditions noted are these: for percentage survival relative to the missense, n = 3: independent experiment n = 3, dilution point of maximum toxicity; for percentage survival relative to the missense, n = 1: independent experiment n = 1, dilution point of maximum toxicity; for percentage survival relative to the missense, n = 2: independent experiment n = 2, dilution point of maximum toxicity.
Source text: as §1, §2, §3, §4, §5

A further data set has as its system U251 cells. Nature of the data set: 10-14 day Clonagenicity Assay (MTT), U251. The conditions noted are these: U251, clonagenicity assay, dilution point of maximum toxicity; for percentage survival relative to the missense, n = 1: independent experiment n = 1; for percentage survival relative to the missense, n = 2: independent experiment n = 2; for percentage survival relative to the missense, n = 3: independent experiment n = 3. The method, boiled down: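 U251 cells were seeded in a 96-well plate, left overnight to adhere at 37° C. in humidified 5% CO2, and serially diluted 1 in 2 from Column 1 to 6. They were transfected for 4 hrs with siRNA oligomers at 2 μg/ml, given fresh medium, changed again at 24 hrs, then incubated 10-14 days with weekly renewal. MTT conversion measured cell number; survival was expressed versus missense control.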

The next data set relates to A498 cells. Nature of the data set: 10-14 day Clonagenicity Assay (MTT), A498. The conditions noted are these: for percentage survival relative to the missense, n = 1: independent experiment n = 1, dilution point of maximum toxicity; for percentage survival relative to the missense, n = 3: independent experiment n = 3, dilution point of maximum toxicity. The gist of the method:
(§6)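 Read-out is MTT conversion 10-14 days after siRNA transfection, expressed as average percentage viability relative to missense oligomer at the seed density of maximum toxicity. Oligomers were applied at 2 μg/ml for 4 hours to cells plated over six 1-in-2 dilutions. Cytotoxicity required reduced viability at two or more seed densities.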

The test system of another data set is PC3 cells. Kind of data set: Cell Migration Assay (Chemicon ECM550, Boyden Chamber). The conditions noted are these: 48 hours post siRNA transfection, 24-hour migration, compared to missense and UPA controls. The method, then:
Cells are seeded into a 6-well plate and allowed to adhere overnight at 37° C. in a humidified atmosphere containing 5% CO2 in air. Cells are next transfected with siRNA oligonucleotides, at a concentration of 2 μg/ml, against the genes of interest, as described in detail in Example 5. Transfections are continued for 4 hrs after which the transfection solution is removed and cells are refed with fresh medium and allowed incubate overnight. Transfected cells are next harvested for seeding into migration assay as described below.
The Chemicon Cell Migration Assay (ECM550) is used to quantify the number of PC3 cells that successfully migrate across a Boyden Chamber towards a chemoattractant over a 24-hour incubation period. Assessment of PC3 cell migration is performed routinely 48 hours post siRNA Transfection. The effect of reducing the expression of genes of interest is compared to that of a missense control oligomer and to the influence of UPA knockdown, which is reported in the literature to decrease PC3 cell migration. The Migration Assay is performed as per manufacturers inductions. Results are illustrated in FIGS. 39 to 41.
Cells were plated and transfected with the indicated siRNA as described above. Migration of PC3 cells was tracked using a fluorescent dye. Consequently increases in fluorescent units correlates positively with increased migration.

The next data set deals with HCT15 cells. Kind of data set: 10-14 day Clonagenicity Assay (MTT), HCT15. The conditions noted are these: for percentage survival relative to the missense, n = 1: independent experiment n = 1, dilution point of maximum toxicity; for percentage survival relative to the missense, n = 2: independent experiment n = 2, dilution point of maximum toxicity. The method, boiled down:
as §6

As to “siRNA P14KB: sense GCUACGGAAGCUGAUCCUCtt, antisense GAGGAUCAGCUUCCGUAGCtt (sense GCUACGGAAGCUGAUCCUCTT; antisense GAGGAUCAGCUUCCGUAGCTT; chemistry not given here)”, the “percentage survival relative to the missense, n = 1” value is recorded as 12.3% with SKOV3 cells, 12.3% in the data set with U251 cells and 19.3% with A498 cells. Besides, the figures for the “percentage survival relative to the missense, n = 2” value in the data set with SKOV3 cells and with U251 cells were 56% and 65%, respectively. The “percentage survival relative to the missense, n = 3” value in the data set with SKOV3 cells amounted to 44.8%; in the data set on DU145 cells it was 26.1%; in the data set with U251 cells it was 28.3%; in the data set on A498 cells it was 15.1%. Further, in the data set with PC3 cells, the “migration of PC3 cells” value is reported as “no influence on the migration”.
As for “siRNA ROCK: siRNA duplex, sense UACAUGCCUGGUGGAGAUCtt, antisense GAUCUCCACCAGGCAUGUAtt; same in Tables 9 and 11 (sense UACAUGCCUGGUGGAGAUCTT; antisense GAUCUCCACCAGGCAUGUATT; chemistry not given here)”, the “percentage survival relative to the missense, n = 1” value with HCT15 cells came to 61.9%; with SKOV3 cells it was 11.7%; in the data set with DU145 cells it was 45.6%; in the data set with U251 cells it was 13.8%; in the data set with A498 cells, 14.3%. Also, the “percentage survival relative to the missense, n = 2” value with HCT15 cells stood at 34.6%; in the data set with SKOV3 cells it was 30.4%; in the data set with DU145 cells, 44.4%; in the data set on U251 cells it was 58.2%. The “percentage survival relative to the missense, n = 3” value in the data set with SKOV3 cells was found to be 40.7%; with U251 cells, 19.8%; with A498 cells it was 8.3%.
As to “siRNA EKI: siRNA duplex, sense GCACUGGAUCCAAAGCAUGtt, antisense CAUGCUUUGGAUCCAGUGCtt; same in Tables 9 and 11 (sense GCACUGGAUCCAAAGCAUGTT; antisense CAUGCUUUGGAUCCAGUGCTT; chemistry not given here)”, the “percentage survival relative to the missense, n = 1” value amounted to 63.5% in the data set with HCT15 cells, 10.5% with SKOV3 cells, 62.3% with U251 cells and 21.6% in the data set with A498 cells. Also, the “percentage survival relative to the missense, n = 2” value in the data set with HCT15 cells is listed as 60.6%; in the data set on SKOV3 cells it was 19.8%; in the data set on DU145 cells, 62.2%. Also, the “percentage survival relative to the missense, n = 3” value came to 20.6% in the data set on SKOV3 cells and 15.4% with A498 cells.
On to “siRNA PCTAIRE: sense GUCAGUGCCCACAAAGACUtt, antisense AGUCUUUGUGGGCACUGACtt (sense GUCAGUGCCCACAAAGACUTT; antisense AGUCUUUGUGGGCACUGACTT; chemistry not given here)”, for which the “percentage survival relative to the missense, n = 1” value in the data set with SKOV3 cells was 68.6%. Moreover, in the data set on U251 cells, the “percentage survival relative to the missense, n = 1” value was found to be 24.2%; the “percentage survival relative to the missense, n = 2” value is 42.7%; the “percentage survival relative to the missense, n = 3” value came out at 1.6%. In the data set with A498 cells, the “percentage survival relative to the missense, n = 1” value is reported as 24.9% and the “percentage survival relative to the missense, n = 3” value is listed as 48.4%. The “migration of PC3 cells” value with PC3 cells is “inhibition of migration”.
Turning to “siRNA GRAF: siRNA duplex, sense GCGGAAGUUUGCAGAUUCCtt, antisense GGAAUCUGCAAACUUCCGCtt; same in Tables 9 and 11 (sense GCGGAAGUUUGCAGAUUCCTT; antisense GGAAUCUGCAAACUUCCGCTT; chemistry not given here)”, the “percentage survival relative to the missense, n = 1” value with SKOV3 cells came to 82.2%. In the data set on A498 cells, the “percentage survival relative to the missense, n = 1” value came to 92.6% and the “percentage survival relative to the missense, n = 3” value came to 49.9%.
Consider “siRNA Survivin: positive control siRNA, sense GAACUGGCCCUUCUUGGAGtt, antisense CUCCAAGAAGGGCCAGUUCtt (sense GAACUGGCCCUUCUUGGAGTT; antisense CUCCAAGAAGGGCCAGUUCTT; chemistry not given here) [reference compound]”, for which the “percentage survival relative to the missense, n = 1” value with HCT15 cells came out at 71.3%; in the data set on SKOV3 cells, 43.9%; in the data set on DU145 cells it was 102%; in the data set on U251 cells it was 45.9%; with A498 cells, 35.9%. Moreover, the “percentage survival relative to the missense, n = 2” value is 44.5% in the data set on HCT15 cells, 90.8% in the data set on SKOV3 cells, 61.8% in the data set on DU145 cells and 64.6% in the data set on U251 cells. Besides, the “percentage survival relative to the missense, n = 3” value in the data set on SKOV3 cells is 85.7%; in the data set on DU145 cells, 91%; with U251 cells, 76.4%; in the data set with A498 cells it was 75.9%.
Take “siRNA NTKL: siRNA duplex, sense UGUGGAGCUGAUGAAGCACtt, antisense GUGCUUCAUCAGCUCCACAtt; same in Tables 9 and 11 (sense UGUGGAGCUGAUGAAGCACTT; antisense GUGCUUCAUCAGCUCCACATT; chemistry not given here)”: the “percentage survival relative to the missense, n = 1” value stood at 59.5% in the data set on HCT15 cells; 6.2% in the data set with SKOV3 cells; 27.8% in the data set with DU145 cells; 9.5% in the data set on U251 cells; 12.3% in the data set on A498 cells. Also, the “percentage survival relative to the missense, n = 2” value in the data set with HCT15 cells was found to be 55.3%; with SKOV3 cells, 18.8%; in the data set on DU145 cells it was 35.1%; in the data set on U251 cells, 20.9%. In addition, the “percentage survival relative to the missense, n = 3” value with SKOV3 cells was 14.9%; with DU145 cells it was 25.4%; in the data set with U251 cells, 17.1%; in the data set on A498 cells, 7.2%.
